Data from paper PMC4979471 (Cell Death Discovery, 2015).
Where two headings read alike, the source gives them in different places.

What was measured:
Assay in all cases: Kinase selectivity, P33-radiolabeled assay
Assay type in all cases: biochemical
Conditions in all cases: 10 μM ATP
[1] = target: T1, AKT1 (Homo sapiens, UniProt P31749)
T1 construct: purchased Reaction Biology Corp
Summary of the method: (§1)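 Duplicate single-concentration testing used 10 μM compound. The ATP concentration was also 10 μM.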

[2] = target: T2, CAMK1d (Homo sapiens, UniProt Q8IU85)
T2 construct: purchased Reaction Biology Corp
Summary of the method: as §1

[3] = target: T3, CDK6/cyclin D1 (Homo sapiens, UniProt Q00534)
T3 construct: purchased Reaction Biology Corp
Summary of the method: as §1

[4] = target: T4, CK1a1 (Homo sapiens, UniProt P48729)
T4 construct: purchased Reaction Biology Corp
Summary of the method: as §1

[5] = target: T5, CK2a (Homo sapiens, UniProt P68400)
T5 construct: purchased Reaction Biology Corp
Summary of the method: as §1

[6] = target: T6, MAPKAPK5/PRAK (Homo sapiens, UniProt Q8IW41)
T6 construct: purchased Reaction Biology Corp
T6 sequence (Q8IW41 1-473): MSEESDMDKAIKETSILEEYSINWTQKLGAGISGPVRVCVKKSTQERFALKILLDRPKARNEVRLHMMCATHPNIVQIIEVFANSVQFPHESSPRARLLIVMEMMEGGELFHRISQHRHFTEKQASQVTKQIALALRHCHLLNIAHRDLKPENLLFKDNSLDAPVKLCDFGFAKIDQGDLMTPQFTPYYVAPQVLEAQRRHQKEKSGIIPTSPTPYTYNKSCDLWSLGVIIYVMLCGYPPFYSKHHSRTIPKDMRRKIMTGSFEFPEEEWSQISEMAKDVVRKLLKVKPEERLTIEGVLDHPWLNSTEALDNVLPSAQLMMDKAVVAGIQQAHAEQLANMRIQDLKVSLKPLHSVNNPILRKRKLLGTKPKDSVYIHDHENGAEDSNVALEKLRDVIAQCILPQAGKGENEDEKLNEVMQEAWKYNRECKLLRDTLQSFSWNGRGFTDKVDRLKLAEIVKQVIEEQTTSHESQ
Summary of the method: as §1

[7] = target: T7, MARK3 (Homo sapiens, UniProt P27448)
T7 construct: purchased Reaction Biology Corp
Summary of the method: as §1

[8] = target: T8, MARK4 (Homo sapiens, UniProt Q96L34)
T8 construct: purchased Reaction Biology Corp
T8 sequence (Q96L34 1-752): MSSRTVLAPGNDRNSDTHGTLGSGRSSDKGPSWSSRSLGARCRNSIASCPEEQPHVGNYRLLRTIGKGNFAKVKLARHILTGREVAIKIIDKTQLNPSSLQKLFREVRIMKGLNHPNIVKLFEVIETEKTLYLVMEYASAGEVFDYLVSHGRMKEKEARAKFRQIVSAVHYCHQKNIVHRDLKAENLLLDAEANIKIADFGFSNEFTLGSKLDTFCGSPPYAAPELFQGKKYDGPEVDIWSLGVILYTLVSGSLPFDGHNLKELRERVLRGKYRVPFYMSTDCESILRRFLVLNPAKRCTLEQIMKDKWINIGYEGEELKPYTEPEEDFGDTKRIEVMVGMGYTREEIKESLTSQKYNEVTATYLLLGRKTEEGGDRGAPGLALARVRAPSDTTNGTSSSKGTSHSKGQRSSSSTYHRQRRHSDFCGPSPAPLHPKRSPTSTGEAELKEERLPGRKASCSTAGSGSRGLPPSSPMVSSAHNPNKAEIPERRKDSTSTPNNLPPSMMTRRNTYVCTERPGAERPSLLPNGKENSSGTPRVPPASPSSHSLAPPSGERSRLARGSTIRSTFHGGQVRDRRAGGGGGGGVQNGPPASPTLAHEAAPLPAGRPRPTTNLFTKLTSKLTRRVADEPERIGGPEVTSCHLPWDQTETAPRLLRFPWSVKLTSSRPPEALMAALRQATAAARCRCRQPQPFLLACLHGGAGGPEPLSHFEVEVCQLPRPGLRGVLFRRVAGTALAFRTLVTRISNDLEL
Summary of the method: as §1

[9] = target: T9, MRCKb/CDC42BPB (Homo sapiens, UniProt Q9Y5S2)
T9 construct: purchased Reaction Biology Corp
Summary of the method: as §1

[10] = target: T10, PKA (Homo sapiens, UniProt P17612)
T10 construct: purchased Reaction Biology Corp
Summary of the method: as §1

[11] = target: T11, TEC (Homo sapiens, UniProt P42680)
T11 construct: purchased Reaction Biology Corp
T11 sequence (P42680 1-631): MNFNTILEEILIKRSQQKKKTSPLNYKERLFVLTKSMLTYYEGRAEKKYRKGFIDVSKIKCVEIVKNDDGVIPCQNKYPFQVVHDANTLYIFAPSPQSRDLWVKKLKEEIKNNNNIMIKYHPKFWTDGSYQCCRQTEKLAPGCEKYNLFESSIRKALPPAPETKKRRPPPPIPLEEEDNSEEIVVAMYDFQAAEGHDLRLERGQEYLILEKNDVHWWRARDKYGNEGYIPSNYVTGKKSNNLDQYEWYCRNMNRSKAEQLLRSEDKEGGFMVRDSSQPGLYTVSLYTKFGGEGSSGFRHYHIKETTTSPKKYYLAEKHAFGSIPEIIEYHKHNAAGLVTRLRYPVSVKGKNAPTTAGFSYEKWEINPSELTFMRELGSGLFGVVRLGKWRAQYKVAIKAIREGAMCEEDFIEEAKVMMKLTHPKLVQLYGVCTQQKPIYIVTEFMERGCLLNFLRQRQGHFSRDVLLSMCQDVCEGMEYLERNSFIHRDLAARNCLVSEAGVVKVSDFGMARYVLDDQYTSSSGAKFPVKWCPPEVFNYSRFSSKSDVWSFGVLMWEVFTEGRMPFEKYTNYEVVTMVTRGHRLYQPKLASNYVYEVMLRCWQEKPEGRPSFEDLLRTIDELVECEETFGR
Summary of the method: as §1

[12] = target: T12, VRK2 (Homo sapiens, UniProt Q86Y07)
T12 construct: purchased Reaction Biology Corp
Summary of the method: as §1

[13] = read-out: % Enzyme Activity (relative to DMSO controls) AVG
[14] = read-out: % Enzyme Activity (relative to DMSO controls) Data 1
[15] = read-out: % Enzyme Activity (relative to DMSO controls) Data 2

T9 sequence (Q9Y5S2 whole entry): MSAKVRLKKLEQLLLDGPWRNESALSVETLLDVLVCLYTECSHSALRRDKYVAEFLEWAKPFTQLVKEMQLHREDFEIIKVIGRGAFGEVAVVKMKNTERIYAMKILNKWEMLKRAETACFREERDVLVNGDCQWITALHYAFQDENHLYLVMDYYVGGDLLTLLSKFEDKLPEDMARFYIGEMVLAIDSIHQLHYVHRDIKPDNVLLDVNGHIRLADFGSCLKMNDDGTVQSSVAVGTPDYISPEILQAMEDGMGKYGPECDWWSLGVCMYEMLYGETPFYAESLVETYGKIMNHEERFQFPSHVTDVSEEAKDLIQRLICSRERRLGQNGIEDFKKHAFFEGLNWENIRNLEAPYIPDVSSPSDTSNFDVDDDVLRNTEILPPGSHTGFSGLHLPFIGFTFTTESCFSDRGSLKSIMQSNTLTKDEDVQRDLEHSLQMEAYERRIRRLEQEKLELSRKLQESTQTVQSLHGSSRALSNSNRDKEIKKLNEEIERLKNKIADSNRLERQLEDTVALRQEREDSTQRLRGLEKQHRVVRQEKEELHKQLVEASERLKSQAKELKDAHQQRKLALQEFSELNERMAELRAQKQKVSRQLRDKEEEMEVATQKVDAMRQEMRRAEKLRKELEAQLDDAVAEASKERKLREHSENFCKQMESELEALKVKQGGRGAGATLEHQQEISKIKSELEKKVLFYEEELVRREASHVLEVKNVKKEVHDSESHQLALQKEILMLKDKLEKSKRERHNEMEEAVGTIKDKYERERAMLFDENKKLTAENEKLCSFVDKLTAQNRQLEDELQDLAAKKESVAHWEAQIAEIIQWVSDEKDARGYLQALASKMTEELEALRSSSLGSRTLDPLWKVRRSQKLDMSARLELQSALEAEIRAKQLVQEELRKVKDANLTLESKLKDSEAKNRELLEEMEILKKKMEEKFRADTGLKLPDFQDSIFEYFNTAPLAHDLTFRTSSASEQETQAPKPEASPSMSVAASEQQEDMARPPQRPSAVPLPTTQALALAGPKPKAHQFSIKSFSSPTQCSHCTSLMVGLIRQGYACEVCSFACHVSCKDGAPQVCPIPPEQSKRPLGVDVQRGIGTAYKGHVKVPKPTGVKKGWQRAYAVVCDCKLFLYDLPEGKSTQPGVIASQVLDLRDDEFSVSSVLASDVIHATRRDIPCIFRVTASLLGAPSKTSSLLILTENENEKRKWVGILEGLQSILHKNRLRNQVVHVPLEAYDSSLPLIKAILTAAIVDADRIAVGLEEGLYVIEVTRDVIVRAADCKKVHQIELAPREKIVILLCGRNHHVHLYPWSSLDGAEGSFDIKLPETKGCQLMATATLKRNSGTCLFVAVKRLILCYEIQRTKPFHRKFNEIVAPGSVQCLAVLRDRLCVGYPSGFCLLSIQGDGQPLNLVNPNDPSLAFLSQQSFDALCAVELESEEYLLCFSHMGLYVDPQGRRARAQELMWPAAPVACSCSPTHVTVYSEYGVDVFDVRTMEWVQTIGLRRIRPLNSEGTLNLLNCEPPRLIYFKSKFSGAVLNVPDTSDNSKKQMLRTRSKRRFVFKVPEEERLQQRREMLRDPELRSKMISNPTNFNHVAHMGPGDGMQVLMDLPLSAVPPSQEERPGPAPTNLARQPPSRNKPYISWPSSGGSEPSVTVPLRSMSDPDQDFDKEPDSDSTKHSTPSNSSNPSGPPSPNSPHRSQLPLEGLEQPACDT
T12 sequence (Q86Y07 whole entry): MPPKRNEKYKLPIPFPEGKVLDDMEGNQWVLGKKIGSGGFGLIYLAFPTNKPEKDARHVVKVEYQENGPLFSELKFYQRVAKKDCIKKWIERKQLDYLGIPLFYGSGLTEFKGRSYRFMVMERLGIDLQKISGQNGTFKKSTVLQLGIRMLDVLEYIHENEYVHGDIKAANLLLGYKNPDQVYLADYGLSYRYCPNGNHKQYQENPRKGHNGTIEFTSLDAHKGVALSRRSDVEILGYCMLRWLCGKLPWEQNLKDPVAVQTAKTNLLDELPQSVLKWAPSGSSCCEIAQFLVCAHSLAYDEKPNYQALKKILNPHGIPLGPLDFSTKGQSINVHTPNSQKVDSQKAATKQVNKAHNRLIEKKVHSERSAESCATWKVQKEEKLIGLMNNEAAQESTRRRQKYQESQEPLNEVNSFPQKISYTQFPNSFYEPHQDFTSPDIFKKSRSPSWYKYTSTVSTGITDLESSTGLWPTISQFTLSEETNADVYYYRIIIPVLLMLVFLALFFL
T1 sequence (P31749 whole entry): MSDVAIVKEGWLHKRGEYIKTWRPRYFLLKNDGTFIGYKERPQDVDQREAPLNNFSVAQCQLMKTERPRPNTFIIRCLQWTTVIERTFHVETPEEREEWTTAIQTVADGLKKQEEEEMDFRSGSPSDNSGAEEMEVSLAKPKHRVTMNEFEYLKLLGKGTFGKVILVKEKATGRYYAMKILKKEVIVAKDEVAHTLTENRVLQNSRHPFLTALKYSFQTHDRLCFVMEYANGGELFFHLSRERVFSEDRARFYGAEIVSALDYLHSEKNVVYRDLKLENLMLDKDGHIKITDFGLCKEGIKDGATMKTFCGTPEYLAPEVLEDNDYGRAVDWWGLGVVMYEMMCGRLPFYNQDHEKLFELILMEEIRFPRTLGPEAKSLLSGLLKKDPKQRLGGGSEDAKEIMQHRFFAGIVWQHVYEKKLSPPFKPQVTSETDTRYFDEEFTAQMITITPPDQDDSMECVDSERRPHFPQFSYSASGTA
T3 sequence (Q00534 whole entry): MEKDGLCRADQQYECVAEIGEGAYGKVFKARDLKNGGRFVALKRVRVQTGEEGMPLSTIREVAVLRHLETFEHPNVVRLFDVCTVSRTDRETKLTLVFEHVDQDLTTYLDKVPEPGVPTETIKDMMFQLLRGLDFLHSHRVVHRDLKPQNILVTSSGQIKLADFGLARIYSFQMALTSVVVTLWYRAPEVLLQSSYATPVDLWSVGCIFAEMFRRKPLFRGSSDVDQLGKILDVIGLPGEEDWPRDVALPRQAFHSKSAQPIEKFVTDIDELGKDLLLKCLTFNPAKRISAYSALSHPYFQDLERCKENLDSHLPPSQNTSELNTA
T3 sequence (P24385 whole entry partner): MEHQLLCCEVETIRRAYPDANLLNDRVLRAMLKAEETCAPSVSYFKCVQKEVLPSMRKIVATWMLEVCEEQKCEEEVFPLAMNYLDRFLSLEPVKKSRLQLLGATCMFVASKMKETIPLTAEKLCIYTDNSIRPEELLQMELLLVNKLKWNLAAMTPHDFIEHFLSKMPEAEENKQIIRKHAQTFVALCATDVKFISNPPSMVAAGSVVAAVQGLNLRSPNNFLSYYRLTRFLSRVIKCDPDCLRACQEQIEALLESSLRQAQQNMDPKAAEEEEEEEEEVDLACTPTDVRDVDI
T2 sequence (Q8IU85 whole entry): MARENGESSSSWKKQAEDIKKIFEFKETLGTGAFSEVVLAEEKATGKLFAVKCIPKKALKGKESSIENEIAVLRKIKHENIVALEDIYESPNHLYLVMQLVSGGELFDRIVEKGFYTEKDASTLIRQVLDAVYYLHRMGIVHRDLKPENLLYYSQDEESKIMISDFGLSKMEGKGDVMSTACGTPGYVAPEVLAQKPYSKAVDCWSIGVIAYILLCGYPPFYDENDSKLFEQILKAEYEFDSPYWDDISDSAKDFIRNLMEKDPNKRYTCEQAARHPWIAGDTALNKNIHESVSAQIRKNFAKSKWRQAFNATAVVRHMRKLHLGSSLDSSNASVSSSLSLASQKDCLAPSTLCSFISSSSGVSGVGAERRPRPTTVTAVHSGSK
T4 sequence (P48729 whole entry): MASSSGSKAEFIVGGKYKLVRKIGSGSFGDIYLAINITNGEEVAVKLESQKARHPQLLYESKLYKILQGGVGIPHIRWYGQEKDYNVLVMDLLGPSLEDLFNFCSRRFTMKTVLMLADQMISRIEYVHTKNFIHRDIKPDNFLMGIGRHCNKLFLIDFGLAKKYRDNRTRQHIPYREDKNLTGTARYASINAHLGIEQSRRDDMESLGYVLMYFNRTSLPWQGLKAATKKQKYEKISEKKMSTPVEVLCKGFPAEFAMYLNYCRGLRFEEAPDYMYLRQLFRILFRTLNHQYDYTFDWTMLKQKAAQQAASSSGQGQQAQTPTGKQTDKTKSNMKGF
T7 sequence (P27448 whole entry): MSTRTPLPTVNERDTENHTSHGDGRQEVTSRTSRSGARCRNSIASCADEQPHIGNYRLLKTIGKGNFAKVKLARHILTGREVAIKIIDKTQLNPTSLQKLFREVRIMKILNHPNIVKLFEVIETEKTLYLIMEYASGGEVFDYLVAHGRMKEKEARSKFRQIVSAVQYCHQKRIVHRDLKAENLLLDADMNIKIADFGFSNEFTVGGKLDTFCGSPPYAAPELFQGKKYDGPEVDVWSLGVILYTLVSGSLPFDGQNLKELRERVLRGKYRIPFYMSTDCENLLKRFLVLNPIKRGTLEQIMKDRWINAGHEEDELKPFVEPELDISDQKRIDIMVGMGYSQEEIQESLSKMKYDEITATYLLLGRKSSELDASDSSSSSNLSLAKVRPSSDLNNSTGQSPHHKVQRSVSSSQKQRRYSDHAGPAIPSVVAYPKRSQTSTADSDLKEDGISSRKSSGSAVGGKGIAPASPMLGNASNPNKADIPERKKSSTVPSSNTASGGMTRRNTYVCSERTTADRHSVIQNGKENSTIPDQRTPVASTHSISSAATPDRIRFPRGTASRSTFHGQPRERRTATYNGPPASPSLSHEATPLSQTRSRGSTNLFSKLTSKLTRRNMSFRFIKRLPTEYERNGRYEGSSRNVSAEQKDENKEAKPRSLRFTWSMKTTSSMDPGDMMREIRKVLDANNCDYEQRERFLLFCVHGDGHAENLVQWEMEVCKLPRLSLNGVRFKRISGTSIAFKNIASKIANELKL

With `CC(C)(C)C(=O)N1N=CC[C@H]1c1ccccc1` [GSK′963] the remaining activity at 10 µM [1, 13] was 100%, the remaining activity at 10 µM [1, 14] was 102% and the remaining activity at 10 µM [1, 15] was 98.8%. It also gave a remaining activity at 10 µM [2, 13] of 90.2%, a remaining activity at 10 µM [2, 14] of 88.6% and a remaining activity at 10 µM [2, 15] of 91.8%. It also gave a remaining activity at 10 µM [3, 13] of 93.7%, a remaining activity at 10 µM [3, 14] of 94.2% and a remaining activity at 10 µM [3, 15] of 93.2%. For the same compound, the remaining activity at 10 µM [4, 13] was 103%, the remaining activity at 10 µM [4, 14] was 102% and the remaining activity at 10 µM [4, 15] was 103%. The remaining activity at 10 µM [5, 13] was 99.4%, the remaining activity at 10 µM [5, 14] was 105% and the remaining activity at 10 µM [5, 15] was 93.8%. It also gave a remaining activity at 10 µM [6, 13] of 116%, a remaining activity at 10 µM [6, 14] of 115% and a remaining activity at 10 µM [6, 15] of 117%. For the same compound, the remaining activity at 10 µM [7, 13] was 100%, the remaining activity at 10 µM [7, 14] was 102% and the remaining activity at 10 µM [7, 15] was 98.3%. It also gave a remaining activity at 10 µM [8, 13] of 107%, a remaining activity at 10 µM [8, 14] of 105% and a remaining activity at 10 µM [8, 15] of 109%. It also gave a remaining activity at 10 µM [9, 13] of 106%, a remaining activity at 10 µM [9, 14] of 109% and a remaining activity at 10 µM [9, 15] of 102%. It also gave a remaining activity at 10 µM [10, 13] of 110%, a remaining activity at 10 µM [10, 14] of 112% and a remaining activity at 10 µM [10, 15] of 107%. For the same compound, the remaining activity at 10 µM [11, 13] was 104%, the remaining activity at 10 µM [11, 14] was 98.7% and the remaining activity at 10 µM [11, 15] was 109%. For the same compound, the remaining activity at 10 µM [12, 13] was 107%, the remaining activity at 10 µM [12, 14] was 107% and the remaining activity at 10 µM [12, 15] was 108%.
